From patent publication US7829563B2, “Aminoamides as orexin antagonists” (Hoffmann-La Roche Inc., priority 2007, dated 2010)

The molecules below were run against T1, human orexin-2 (hOX2) receptors (Homo sapiens, UniProt O43614) (assay: Intracellular Ca2+ mobilization assay (FLIPR), antagonism of orexin-A). Conditions: CHO(dHFr−) cells stably expressing hOX2; orexin-A at EC80 as agonist; Kb=IC50/(1+[A]/EC50); read-out: Kb (μM) OX2R (human).
T1 construct: expressed in transfected cells
T1 sequence (O43614 1-444): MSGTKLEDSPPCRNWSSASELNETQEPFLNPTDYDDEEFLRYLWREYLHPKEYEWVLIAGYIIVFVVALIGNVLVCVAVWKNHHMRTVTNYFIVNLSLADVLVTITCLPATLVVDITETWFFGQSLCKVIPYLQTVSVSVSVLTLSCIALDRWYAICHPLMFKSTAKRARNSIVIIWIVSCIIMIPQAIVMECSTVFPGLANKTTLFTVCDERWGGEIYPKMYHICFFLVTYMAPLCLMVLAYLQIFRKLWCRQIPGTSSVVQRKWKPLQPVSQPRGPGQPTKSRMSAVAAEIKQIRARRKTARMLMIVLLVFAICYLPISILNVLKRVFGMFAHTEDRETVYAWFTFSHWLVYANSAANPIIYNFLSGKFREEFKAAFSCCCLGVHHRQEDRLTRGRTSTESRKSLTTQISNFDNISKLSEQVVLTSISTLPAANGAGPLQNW
Assay type: cell-based
Procedure: R^7 and R^8 in scheme 5 are hydrogen, and the other substituents are as described above The compounds were investigated in accordance with the test given hereinafter. Intracellular Ca^2+ Mobilization Assay
The Chinese Hamster Ovary (dHFr−) mutant cell line stably expressing human orexin-1 (hOX1) or human orexin-2 (hOX2) receptors were maintained in Dulbecco's Modified Eagle Medium (1×) with GlutaMax™ 1, 4500 mg/L D-Glucose and Sodium Pyruvate (Catalog No. 31966-021, Invitrogen, Carlsbad, Calif.), 5% dialyzed fetal calf serum (Catalog No. 26400-044), 100 μg/ml penicillin and 100 μg/ml streptomycin. The cells were seeded at 5×10^4 cells/well in the poly-D-lysine treated, 96-well, black/clear-bottomed plates (Catalog No. BD356640, BD Biosciences, Palo Alto, Calif.). 24 h later, the cells were loaded for 1 h at 37° C. with 4 μM Flou-4 acetoxymethyl ester (Catalog No. F-14202, Molecular Probes, Eugene, Oreg.) in FLIPR buffer (1×HBSS, 20 mM HEPES, 2.5 mM Probenecid). Hanks' Balanced Salt Solution (HBSS) (10×) (catalog No. 14065-049) and HEPES (1M) (catalog No. 15630-056) were purchased from Invitrogen, Carlsbad, Calif. Probenecid (250 mM) (catalog No. P8761) was from Sigma, Buchs, Switzerland. The cells were washed five times with FLIPR buffer to remove excess dye and intracellular calcium mobilization, [Ca^2+]i were measured using a Fluorometric Imaging Plate Reader (FLIPR-96, Molecular Devices, Menlo Park, Calif.) as described previously (Malherbe et al., Mol. Pharmacol., 64, 823-832, 2003). Orexin A (catalog No. 1455, Toris Cookson Ltd, Bristol, UK) was used as agonist. Orexin A ([…] stock solution in DMSO) was diluted in FLIPR buffer+0.1% BSA. The EC50 and EC80 values of orexin-A were measured daily from standard agonist concentration-response curves in CHO(dHFr−)-OX1R and —OX2R cell lines. All compounds were dissolved in 100% DMSO. Inhibition curves were determined by addition of 11 concentrations (0.0001-10 μM) of inhibitory compounds and using EC80 value of orexin-A as agonist (a concentration which gave 80% of max agonist response, determined daily). The antagonists were applied 25 min (incubation at 37° C.) before the application of the agonist. Responses were measured as peak increase in fluorescence minus basal, normalized to the maximal stimulatory effect induced by EC80 value of orexin-A or orexin-B. Inhibition curves were fitted according to the Hill equation: y=100/(1+(x/IC50)^nH), where nH=slope factor using Excel-fit 4 software (Microsoft). Kb values were calculated according to the following equation Kb=IC50/(1+[A]/EC50) where A is the concentration of agonist added which is very close to agonist EC80 value, and IC50 and EC50 values were derived from the antagonist inhibition and orexin-A or B agonist curves, respectively.

Row | SMILES | Kb [µM]
1 | CNC(=O)[C@H](N[C@@H](CCc1ccc(C(F)(F)F)nc1)c1ccc(Cl)c(OC)c1)c1ccc(Cl)cc1 (racemic) [Example 220, (S,R)-2-[(R,S)-1-(4-Chloro-3-methoxy-phenyl)-3-(6-trifluoromethyl-pyridin-3-yl)-propylamino]-2-(4-chloro-phenyl)-N-methyl-acetamide] | 0.0015
2 | CNC(=O)[C@H](N[C@H](CCc1ccc(C(F)(F)F)nc1)c1ccc(Cl)c(OC)c1)c1ccc(F)cc1 (racemic) [Example 223, (S,R)-2-[(S,R)-1-(4-Chloro-3-methoxy-phenyl)-3-(6-trifluoromethyl-pyridin-3-yl)-propylamino]-2-(4-fluoro-phenyl)-N-methyl-acetamide] | 0.0171
3 | CNC(=O)[C@H](N[C@@H](CCc1ccc(C(F)(F)F)nc1)c1ccc(Cl)c(OC)c1)c1ccc(F)cc1 (racemic) [Example 224, (S,R)-2-[(R,S)-1-(4-Chloro-3-methoxy-phenyl)-3-(6-trifluoromethyl-pyridin-3-yl)-propylamino]-2-(4-fluoro-phenyl)-N-methyl-acetamide] | 0.0057
4 | CNC(=O)[C@H](N[C@@H](CCc1ccc(C(F)(F)F)nc1)c1cccc(OC(F)F)c1)c1ccccc1 (racemic) [Example 225, (S,R)-2-[(R,S)-1-(3-Difluoromethoxy-phenyl)-3-(6-trifluoromethyl-pyridin-3-yl)-propylamino]-N-methyl-2-phenyl-acetamide] | 0.0144
5 | CNC(=O)[C@H](N[C@H](CCc1ccc(C(F)(F)F)nc1)c1cccc(OC(F)(F)F)c1)c1ccccc1 (racemic) [Example 226, (S,R)—N-Methyl-2-phenyl-2-[(S,R)-1-(3-trifluoromethoxy-phenyl)-3-(6-trifluoromethyl-pyridin-3-yl)-propylamino]-acetamide] | 0.0195
6 | CNC(=O)[C@H](N[C@@H](CCc1ccc(C(F)(F)F)nc1)c1ccc(F)c(C)c1)c1ccccc1 (racemic) [Example 228, (S,R)-2-[(R,S)-1-(4-Fluoro-3-methyl-phenyl)-3-(6-trifluoromethyl-pyridin-3-yl)-propylamino]-N-methyl-2-phenyl-acetamide] | 0.0035
7 | CNC(=O)[C@H](N[C@@H](CCc1ccc(C(F)(F)F)nc1)c1ccc(F)c(OC)c1)c1ccc(Cl)cc1 (racemic) [Example 230, (S,R)-2-(4-Chloro-phenyl)-2-[(R,S)-1-(4-fluoro-3-methoxy-phenyl)-3-(6-trifluoromethyl-pyridin-3-yl)-propylamino]-N-methyl-acetamide] | 0.0117
8 | CNC(=O)[C@H](N[C@@H](CCc1ccc(C(F)(F)F)nc1)c1ccc(F)c(OC)c1)c1ccccc1 (racemic) [Example 232, (S,R)-2-[(R,S)-1-(4-Fluoro-3-methoxy-phenyl)-3-(6-trifluoromethyl-pyridin-3-yl)-propylamino]-N-methyl-2-phenyl-acetamide] | 0.0085
9 | CNC(=O)[C@H](N[C@@H](CCc1ccc(C(F)(F)F)nc1)c1ccc(OC(F)F)c(OC)c1)c1ccc(Cl)cc1 (racemic) [Example 234, (S,R)-2-(4-Chloro-phenyl)-2-[(R,S)-1-(4-difluoromethoxy-3-methoxy-phenyl)-3-(6-trifluoromethyl-pyridin-3-yl)-propylamino]-N-methyl-acetamide] | 0.013
10 | CNC(=O)[C@H](N[C@@H](CCc1ccc(C(F)(F)F)nc1)c1ccc(C)c(Cl)c1)c1ccccc1 (racemic) [Example 238, (S,R)-2-[(R,S)-1-(3-Chloro-4-methyl-phenyl)-3-(6-trifluoromethyl-pyridin-3-yl)-propylamino]-N-methyl-2-phenyl-acetamide] | 0.0196
11 | CNC(=O)[C@H](N[C@@H](CCc1ccc(C(F)(F)F)nc1)c1ccc(F)c(OC)c1)c1ccc(F)cc1 (racemic) [Example 240, (S,R)-2-[(R,S)-1-(4-Fluoro-3-methoxy-phenyl)-3-(6-trifluoromethyl-pyridin-3-yl)-propylamino]-2-(4-fluoro-phenyl)-N-methyl-acetamide] | 0.0107
